Measured values reported in patent publication US9617267B2, “Compounds and methods for kinase modulation, and indications therefor” (Plexxikon Inc., priority 2009, dated 2017).
pIC50: −log10 of the molar value. Like-named read-outs stand apart in the source and are kept apart here.

What was measured:
CYP2D6 = CYP2D6 (Homo sapiens (Human), UniProt P10635); experiment: CYP enzyme inhibition, fluorescent substrate (AMMC); format: in vitro ADME; conditions: read-out: Cyp IC50 2D6
Outline: (§1)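 IC50 derived from loss of fluorescent metabolite across a 10-point 1:1 dilution series. CYP2D6: 1.5 pmol enzyme, 1.5 μM AMMC, 30 min at 37 °C, 409/530 nm; CYP1A2: 0.5 pmol, 5 μM CEC, 15 min, 409/460 nm. Compounds pre-incubated 10 min in NADPH-regenerating mix.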

c-Raf-1 = c-Raf-1 (Homo sapiens, UniProt P04049); experiment: c-Raf-1 kinase activity biochemical assay (AlphaScreen, biotin-MEK1 phosphorylation)
Outline: (§2)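 Compounds from a 0.1 mM DMSO stock were tested at 8 serially diluted points. Kinase reactions with 100 μM ATP (final) ran 45 min at room temperature, then were stopped with EDTA buffer containing anti-phospho-MEK1/2 antibody plus streptavidin donor and protein A acceptor beads.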

CYP2C19 = CYP2C19 (Homo sapiens (Human), UniProt P33261); experiment: CYP enzyme inhibition, fluorescent substrate (CEC)
Outline: (§3)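 10-pt 1:1 serial dilution in co-factor mix (DMSO stock 100 mM); 10 min preincubation, 37 °C; reaction at 37 °C. Readout: fluorescent metabolite of probe substrate. IC50 from signal vs [compound].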

CYP1A2 = CYP1A2 (Homo sapiens (Human), UniProt P05177); experiment: CYP enzyme inhibition, fluorescent substrate (CEC)
Outline: as §1

B-Raf V600E = B-Raf V600E (Homo sapiens (Human), UniProt P15056, V600E); experiment: B-Raf V600E kinase activity biochemical assay (AlphaScreen, biotin-MEK1 phosphorylation); conditions: for IC50: B-Raf V600E; for Biochemical activity ratio V600E/C: ratio of IC50 B-Raf V600E / c-Raf-1
Outline: as §2

CYP3A4(BQ) = CYP3A4(BQ) (Homo sapiens (Human), UniProt P08684); experiment: CYP enzyme inhibition, fluorescent substrate BQ; conditions: read-out: Cyp IC50 3A4(BQ); CYP3A4, substrate BQ
Outline: as §3

[1] = Relative solubility by turbidity threshold concentration in aqueous buffers (pH 1.5, 4.5, 6.8, 7.4); format: physicochemical; conditions: for turbidity threshold (L, M, H) 1.4: pH 1.4 [sic] (method: SGF pH 1.5); for turbidity threshold (L, M, H) 4.5: pH 4.5 (SIF); for turbidity threshold (L, M, H) 6.8: pH 6.8 (SIF); for turbidity threshold (L, M, H) 7.4: pH 7.4 (HEPES)
Outline: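 Solubility class (high >250 μM, moderate 31.3–250 μM, low <31.3 μM) comes from the concentration where absorbance reaches a 0.01 threshold, averaged across 490/535/650 nm. Samples were compound dilutions from DMSO stock, 1 μL into 99 μL buffer at pH 1.5, 4.5, 6.8 or 7.4.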

CYP2C9 = CYP2C9 (Homo sapiens (Human), UniProt P11712); experiment: CYP enzyme inhibition, fluorescent substrate (MFC)
Outline: as §3

B-Raf [2] = biological target: B-Raf (Homo sapiens (Human), UniProt P15056); experiment: B-Raf kinase activity biochemical assay (AlphaScreen, biotin-MEK1 phosphorylation); conditions: B-Raf
Outline: as §2

B-Raf [3] = experiment: as above; conditions: for Biochemical activity ratio B/V600E: ratio of IC50 B-Raf / B-Raf V600E; for Biochemical activity ratio B/C: ratio of IC50 B-Raf / c-Raf-1
Outline: as §2

CYP3A4(BFC) = CYP3A4(BFC) (Homo sapiens (Human), UniProt P08684); experiment: CYP enzyme inhibition, fluorescent substrate BFC
Outline: as §3

[4] = read-out: Cyp IC50 2C19, CYP2C19, substrate CEC
[5] = read-out: Cyp IC50 1A2, CYP1A2, substrate CEC
[6] = read-out: Cyp IC50 2C9, CYP2C9, substrate MFC
[7] = read-out: Cyp IC50 3A4(BFC), CYP3A4, substrate BFC

Sequence of B-Raf (Homo sapiens (Human), UniProt P15056) (P15056 whole entry): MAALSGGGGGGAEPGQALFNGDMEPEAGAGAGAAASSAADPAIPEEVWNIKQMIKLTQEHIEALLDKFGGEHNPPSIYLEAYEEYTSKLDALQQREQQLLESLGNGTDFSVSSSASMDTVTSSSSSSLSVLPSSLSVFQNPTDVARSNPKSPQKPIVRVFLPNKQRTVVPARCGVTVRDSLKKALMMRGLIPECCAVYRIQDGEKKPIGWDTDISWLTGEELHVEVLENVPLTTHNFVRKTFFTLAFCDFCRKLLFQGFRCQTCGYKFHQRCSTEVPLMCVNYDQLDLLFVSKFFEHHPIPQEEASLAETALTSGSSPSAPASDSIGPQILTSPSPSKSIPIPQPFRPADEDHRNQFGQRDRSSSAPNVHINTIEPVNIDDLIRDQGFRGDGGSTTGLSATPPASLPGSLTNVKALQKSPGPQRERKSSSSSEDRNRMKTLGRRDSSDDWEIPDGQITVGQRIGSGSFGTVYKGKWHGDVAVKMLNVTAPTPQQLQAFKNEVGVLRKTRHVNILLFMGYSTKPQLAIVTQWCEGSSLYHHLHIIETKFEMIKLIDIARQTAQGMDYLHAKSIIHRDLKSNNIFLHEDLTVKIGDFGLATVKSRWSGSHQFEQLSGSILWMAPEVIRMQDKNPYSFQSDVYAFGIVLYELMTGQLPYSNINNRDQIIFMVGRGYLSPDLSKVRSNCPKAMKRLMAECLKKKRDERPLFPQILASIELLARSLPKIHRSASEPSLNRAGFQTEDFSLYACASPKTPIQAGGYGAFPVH
Sequence of CYP3A4(BQ) (P08684 whole entry): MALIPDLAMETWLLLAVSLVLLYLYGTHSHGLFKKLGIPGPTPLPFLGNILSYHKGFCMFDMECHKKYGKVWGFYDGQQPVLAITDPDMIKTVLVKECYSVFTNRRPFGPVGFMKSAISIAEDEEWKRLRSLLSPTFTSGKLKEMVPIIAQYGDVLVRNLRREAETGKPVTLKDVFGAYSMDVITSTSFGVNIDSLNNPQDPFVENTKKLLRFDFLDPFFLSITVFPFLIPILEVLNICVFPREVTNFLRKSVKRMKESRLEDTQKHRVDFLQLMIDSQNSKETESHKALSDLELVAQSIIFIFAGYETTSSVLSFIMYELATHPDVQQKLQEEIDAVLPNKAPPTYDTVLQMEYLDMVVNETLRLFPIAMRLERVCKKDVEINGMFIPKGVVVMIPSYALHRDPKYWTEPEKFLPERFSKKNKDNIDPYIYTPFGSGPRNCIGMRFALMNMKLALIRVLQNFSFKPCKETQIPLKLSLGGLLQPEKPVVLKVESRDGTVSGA
Sequence of CYP3A4(BFC) (P08684 whole entry): as above
Sequence of CYP1A2 (P05177 whole entry): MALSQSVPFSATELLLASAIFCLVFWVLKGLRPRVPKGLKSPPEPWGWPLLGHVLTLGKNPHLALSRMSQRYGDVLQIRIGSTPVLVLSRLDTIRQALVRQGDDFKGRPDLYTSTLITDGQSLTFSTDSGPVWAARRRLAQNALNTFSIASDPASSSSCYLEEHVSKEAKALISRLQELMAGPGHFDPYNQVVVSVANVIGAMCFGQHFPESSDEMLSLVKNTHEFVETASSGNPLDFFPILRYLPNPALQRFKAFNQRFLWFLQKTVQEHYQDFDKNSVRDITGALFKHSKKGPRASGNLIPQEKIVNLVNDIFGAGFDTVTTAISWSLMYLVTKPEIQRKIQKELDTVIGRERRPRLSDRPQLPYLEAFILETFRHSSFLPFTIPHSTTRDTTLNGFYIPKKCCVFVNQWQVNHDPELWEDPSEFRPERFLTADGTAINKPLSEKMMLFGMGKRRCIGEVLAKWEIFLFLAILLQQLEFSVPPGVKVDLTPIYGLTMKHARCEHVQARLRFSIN
Sequence of B-Raf V600E (P15056 whole entry V600E): as the sequence (P15056 whole entry) above, with V600E counted along it
Sequence of CYP2C9 (P11712 whole entry): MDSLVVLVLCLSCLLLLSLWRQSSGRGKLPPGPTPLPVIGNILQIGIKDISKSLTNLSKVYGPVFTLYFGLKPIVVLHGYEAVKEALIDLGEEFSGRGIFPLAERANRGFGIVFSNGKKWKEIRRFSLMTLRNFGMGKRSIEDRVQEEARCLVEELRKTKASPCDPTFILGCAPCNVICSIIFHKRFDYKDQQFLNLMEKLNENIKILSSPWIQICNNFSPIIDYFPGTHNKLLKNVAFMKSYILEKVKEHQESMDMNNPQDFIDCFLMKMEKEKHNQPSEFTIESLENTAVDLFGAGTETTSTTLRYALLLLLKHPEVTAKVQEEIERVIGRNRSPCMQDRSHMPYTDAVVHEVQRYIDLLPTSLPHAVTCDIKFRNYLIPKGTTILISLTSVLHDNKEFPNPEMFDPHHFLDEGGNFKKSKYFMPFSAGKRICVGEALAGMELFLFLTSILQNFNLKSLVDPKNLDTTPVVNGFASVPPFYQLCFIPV
Sequence of CYP2C19 (P33261 whole entry): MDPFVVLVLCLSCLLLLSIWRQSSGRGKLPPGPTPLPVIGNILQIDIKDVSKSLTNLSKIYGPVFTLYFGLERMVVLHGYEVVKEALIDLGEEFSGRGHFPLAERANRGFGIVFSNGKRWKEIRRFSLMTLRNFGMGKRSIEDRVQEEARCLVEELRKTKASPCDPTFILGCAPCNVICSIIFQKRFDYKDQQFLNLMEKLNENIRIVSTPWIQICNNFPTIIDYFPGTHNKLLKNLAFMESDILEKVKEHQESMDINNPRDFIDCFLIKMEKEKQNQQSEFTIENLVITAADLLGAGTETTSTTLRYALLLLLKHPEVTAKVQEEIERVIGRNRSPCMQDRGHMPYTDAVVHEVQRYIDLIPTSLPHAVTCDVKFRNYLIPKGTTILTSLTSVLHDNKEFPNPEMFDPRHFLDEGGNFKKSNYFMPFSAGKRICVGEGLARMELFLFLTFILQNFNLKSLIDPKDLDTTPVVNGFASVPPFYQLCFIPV
Sequence of CYP2D6 (P10635 whole entry): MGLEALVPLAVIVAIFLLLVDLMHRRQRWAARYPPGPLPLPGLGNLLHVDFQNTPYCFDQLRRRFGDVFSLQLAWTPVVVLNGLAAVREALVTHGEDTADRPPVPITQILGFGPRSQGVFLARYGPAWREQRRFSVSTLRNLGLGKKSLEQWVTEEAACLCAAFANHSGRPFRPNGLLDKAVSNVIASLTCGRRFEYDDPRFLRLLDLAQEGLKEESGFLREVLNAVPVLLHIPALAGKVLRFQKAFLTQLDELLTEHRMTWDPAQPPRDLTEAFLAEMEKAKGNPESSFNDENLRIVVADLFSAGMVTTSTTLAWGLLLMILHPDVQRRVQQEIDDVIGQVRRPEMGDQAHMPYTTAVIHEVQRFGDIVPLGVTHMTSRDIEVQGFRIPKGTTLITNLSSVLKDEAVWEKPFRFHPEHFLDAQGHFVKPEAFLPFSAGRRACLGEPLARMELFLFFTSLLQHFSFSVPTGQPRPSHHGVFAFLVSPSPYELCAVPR
Sequence of c-Raf-1 (P04049 whole entry, looked up): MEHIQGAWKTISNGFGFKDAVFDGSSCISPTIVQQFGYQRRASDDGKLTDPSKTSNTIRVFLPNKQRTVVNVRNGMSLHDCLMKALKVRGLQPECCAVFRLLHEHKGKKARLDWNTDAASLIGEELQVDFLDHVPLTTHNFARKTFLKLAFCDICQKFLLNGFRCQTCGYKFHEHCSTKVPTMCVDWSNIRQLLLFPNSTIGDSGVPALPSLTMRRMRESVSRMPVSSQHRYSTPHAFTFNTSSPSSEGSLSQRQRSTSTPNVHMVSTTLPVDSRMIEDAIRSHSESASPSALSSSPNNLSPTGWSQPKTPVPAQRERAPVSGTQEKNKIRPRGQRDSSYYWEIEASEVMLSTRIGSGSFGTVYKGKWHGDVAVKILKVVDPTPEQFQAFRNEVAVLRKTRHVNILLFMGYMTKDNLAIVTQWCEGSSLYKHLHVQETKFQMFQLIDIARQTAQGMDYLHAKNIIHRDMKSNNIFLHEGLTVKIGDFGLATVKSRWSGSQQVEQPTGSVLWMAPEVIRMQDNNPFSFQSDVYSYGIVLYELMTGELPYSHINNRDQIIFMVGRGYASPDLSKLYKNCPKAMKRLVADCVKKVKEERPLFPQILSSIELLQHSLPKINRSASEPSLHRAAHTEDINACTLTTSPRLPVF

Row | SMILES | pIC50 (CYP2D6) | IC50 (c-Raf-1) [µM] | pIC50 (CYP2C19; [4]) | pIC50 (CYP1A2; [5]) | IC50 (B-Raf V600E) [µM] | Biochemical activity ratio V600E/C (B-Raf V600E) | pIC50 (CYP3A4(BQ)) | turbidity threshold (L, M, H) 1.4 [1] | turbidity threshold (L, M, H) 4.5 [1] | turbidity threshold (L, M, H) 6.8 [1] | turbidity threshold (L, M, H) 7.4 [1] | pIC50 (CYP2C9; [6]) | IC50 (B-Raf [2]) [µM] | Biochemical activity ratio B/V600E (B-Raf [3]) | Biochemical activity ratio B/C (B-Raf [3]) | pIC50 (CYP3A4(BFC); [7]) | pIC50 (CYP1A2; human, 15 min) | pIC50 (CYP3A4(BFC)) | pIC50 (CYP2C19) | pIC50 (CYP2C9)
1 | CCCS(=O)(=O)Nc1ccc(F)c(C(=O)c2c[nH]c3ncnc(NC4CCOCC4)c23)c1F [P-1047, Propane-1-sulfonic acid {2,4-difluoro-3-[4-(tetrahydro-pyran-4-ylamino)-7H-pyrrolo[2,3-d]pyrimidine-5-carbonyl]-phenyl}-amide] | < 5.00 | < 0.1 | < 5.00 | < 5.00 | < 0.1 | >10 | < 5.00 | M (moderate solubility if the threshold concentration is 31.3 μM to 250 μM) | L (low solubility if the threshold concentration is <31.3 μM) | L (low solubility if the threshold concentration is <31.3 μM) | L (low solubility if the threshold concentration is <31.3 μM) | < 5.00 | < 0.1 | 0.1-10 | >10 | < 5.00 |  |  |  | 
2 | CN(C)c1ncnc2[nH]cc(C(=O)c3c(F)ccc(NS(=O)(=O)c4ccc(C(F)(F)F)cc4)c3F)c12 [P-1049, N-[3-(4-Dimethylamino-7H-pyrrolo[2,3-d]pyrimidine-5-carbonyl)-2,4-difluoro-phenyl]-4-trifluoromethyl-benzenesulfonamide] | < 5.00 | > 0.1 | < 5.00 |  | > 0.1 | >10 | < 5.00 | M (moderate solubility if the threshold concentration is 31.3 μM to 250 μM) | M (moderate solubility if the threshold concentration is 31.3 μM to 250 μM) | M (moderate solubility if the threshold concentration is 31.3 μM to 250 μM) | M (moderate solubility if the threshold concentration is 31.3 μM to 250 μM) | < 5.00 | > 0.1 | 0.1-10 | >10 | < 5.00 | < 5.00 |  |  | 
3 | O=C(c1c(F)ccc(NS(=O)(=O)c2ccc(C(F)(F)F)cc2)c1F)c1c[nH]c2ncnc(NC3COC3)c12 [P-1050, N-{2,4-Difluoro-3-[4-(oxetan-3-ylamino)-7H-pyrrolo[2,3-d]pyrimidine-5-carbonyl]-phenyl}-4-trifluoromethyl-benzenesulfonamide] | < 5.00 | < 0.1 | < 5.00 | < 5.00 | < 0.1 | >10 | < 5.00 | H (high solubility if the threshold concentration is >250 μm) | M (moderate solubility if the threshold concentration is 31.3 μM to 250 μM) | M (moderate solubility if the threshold concentration is 31.3 μM to 250 μM) | M (moderate solubility if the threshold concentration is 31.3 μM to 250 μM) | < 5.00 | < 0.1 | 0.1-10 | >10 | < 5.00 |  |  |  | 
4 | O=C(c1c(F)ccc(NS(=O)(=O)c2ccc(C(F)(F)F)cc2)c1F)c1c[nH]c2ncnc(NCC3CC3)c12 [P-1052, N-{3-[4-(Cyclopropylmethyl-amino)-7H-pyrrolo[2,3-d]pyrimidine-5-carbonyl]-2,4-difluoro-phenyl}-4-trifluoromethyl-benzenesulfonamide] | < 5.00 | < 0.1 | > 5.30 | < 5.00 | < 0.1 | >10 | < 5.00 | L (low solubility if the threshold concentration is <31.3 μM) | L (low solubility if the threshold concentration is <31.3 μM) | L (low solubility if the threshold concentration is <31.3 μM) | L (low solubility if the threshold concentration is <31.3 μM) | > 5.30 | < 0.1 | 0.1-10 | >10 |  |  | 5.00 to 5.30 |  | 
5 | O=C(c1c(F)ccc(NS(=O)(=O)c2ccc(C(F)(F)F)cc2)c1F)c1c[nH]c2ncnc(OCC3CC3)c12 [P-1053, N-[3-(4-Cyclopropylmethoxy-7H-pyrrolo[2,3-d]pyrimidine-5-carbonyl)-2,4-difluoro-phenyl]-4-trifluoromethyl-benzenesulfonamide] | < 5.00 | < 0.1 |  |  | > 0.1 | >10 | < 5.00 | L (low solubility if the threshold concentration is <31.3 μM) | L (low solubility if the threshold concentration is <31.3 μM) | L (low solubility if the threshold concentration is <31.3 μM) | L (low solubility if the threshold concentration is <31.3 μM) |  | < 0.1 | 0.1-10 | 0.1-10 | < 5.00 | < 5.00 |  | 5.00 to 5.30 | 5.00 to 5.30
6 | O=C(c1c(F)ccc(NS(=O)(=O)c2ccc(C(F)(F)F)cc2)c1F)c1c[nH]c2ncnc(NC3CCOC3)c12 (centres unmarked) [P-1054, N-{2,4-Difluoro-3-[4-(tetrahydro-furan-3-ylamino)-7H-pyrrolo[2,3-d]pyrimidine-5-carbonyl]-phenyl}-4-trifluoromethyl-benzenesulfonamide] | < 5.00 | < 0.1 | < 5.00 |  | < 0.1 | >10 | < 5.00 | M (moderate solubility if the threshold concentration is 31.3 μM to 250 μM) | L (low solubility if the threshold concentration is <31.3 μM) | L (low solubility if the threshold concentration is <31.3 μM) | L (low solubility if the threshold concentration is <31.3 μM) |  | < 0.1 | 0.1-10 | 0.1-10 | < 5.00 | < 5.00 |  |  | 5.00 to 5.30
7 | CCCc1ccc(S(=O)(=O)Nc2ccc(F)c(C(=O)c3c[nH]c4ncnc(NC(C)C)c34)c2F)cc1 [P-1055, N-[2,4-Difluoro-3-(4-isopropylamino-7H-pyrrolo[2,3-d]pyrimidine-5-carbonyl)-phenyl]-4-propyl-benzenesulfonamide] | < 5.00 | < 0.1 | > 5.30 |  | > 0.1 | >10 | < 5.00 | L (low solubility if the threshold concentration is <31.3 μM) | L (low solubility if the threshold concentration is <31.3 μM) | L (low solubility if the threshold concentration is <31.3 μM) | L (low solubility if the threshold concentration is <31.3 μM) |  | < 0.1 | 0.1-10 | 0.1-10 |  | < 5.00 | 5.00 to 5.30 |  | 5.00 to 5.30
8 | CCCc1ccc(S(=O)(=O)Nc2ccc(F)c(C(=O)c3c[nH]c4ncnc(NC5COC5)c34)c2F)cc1 [P-1056, N-{2,4-Difluoro-3-[4-(oxetan-3-ylamino)-7H-pyrrolo[2,3-d]pyrimidine-5-carbonyl]-phenyl}-4-propyl-benzenesulfonamide] | < 5.00 | < 0.1 | < 5.00 |  | > 0.1 | >10 | < 5.00 | M (moderate solubility if the threshold concentration is 31.3 μM to 250 μM) | L (low solubility if the threshold concentration is <31.3 μM) | L (low solubility if the threshold concentration is <31.3 μM) | L (low solubility if the threshold concentration is <31.3 μM) | < 5.00 | < 0.1 | 0.1-10 | >10 | < 5.00 | < 5.00 |  |  | 
